Data from patent publication EP0881220A1, “DIARYLSULTAM DERIVATIVES” (priority 1996, dated 1997).
Counter-ions that a name gives are not always drawn. Like-named read-outs stand apart in the source and are kept apart here.

How the values were obtained:
Dopamine D2 = molecular target: T1, Dopamine D2 (Rattus norvegicus, UniProt P61169); experiment: Binding to dopaminergic receptors using rat striata (method of Terai et al.)
T1 construct: dopaminergic receptors was also measured using rat striata; from tissue; host or cells: rat striata
T1 sequence (P61169 whole entry): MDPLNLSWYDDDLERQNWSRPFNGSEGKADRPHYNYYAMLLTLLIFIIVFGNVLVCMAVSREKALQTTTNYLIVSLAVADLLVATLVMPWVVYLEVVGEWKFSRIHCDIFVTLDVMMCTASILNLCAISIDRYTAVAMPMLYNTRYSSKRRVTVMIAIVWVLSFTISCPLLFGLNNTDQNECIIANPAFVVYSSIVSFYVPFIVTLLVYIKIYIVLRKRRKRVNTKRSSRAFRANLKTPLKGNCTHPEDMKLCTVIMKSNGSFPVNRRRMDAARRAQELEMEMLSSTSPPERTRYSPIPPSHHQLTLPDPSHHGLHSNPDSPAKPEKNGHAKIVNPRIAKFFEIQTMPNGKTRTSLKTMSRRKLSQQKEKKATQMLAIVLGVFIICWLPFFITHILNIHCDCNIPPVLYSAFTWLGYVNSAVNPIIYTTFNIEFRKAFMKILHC
Procedure: The binding of these compounds to dopaminergic receptors was also measured using rat striata according to the method described by Terai et al. (M. Terai, et al., Eur. J. Pharmacol. 1989, 173, 177).

sigma 1 binding site [1] = molecular target: T2, sigma 1 binding site (Cavia porcellus, UniProt Q60492); experiment: biochemical
T2 sequence (Q60492 whole entry): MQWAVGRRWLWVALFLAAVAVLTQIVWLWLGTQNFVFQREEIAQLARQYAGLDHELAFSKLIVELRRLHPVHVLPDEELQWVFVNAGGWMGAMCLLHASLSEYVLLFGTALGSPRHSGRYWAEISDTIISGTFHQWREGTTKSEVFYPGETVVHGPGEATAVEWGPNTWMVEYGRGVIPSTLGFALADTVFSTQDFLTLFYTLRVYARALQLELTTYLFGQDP

sigma 2 binding site = molecular target: T3, sigma 2 binding site (Rattus norvegicus, UniProt Q5U3Y7); experiment: Sigma 2 selective receptor binding inhibition assay with [^3H]-di-o-tolylguanidine; conditions: for S2/S1 Ratio: ratio of Sigma 2 Ki to Sigma 1 Ki
T3 sequence (Q5U3Y7 1-176): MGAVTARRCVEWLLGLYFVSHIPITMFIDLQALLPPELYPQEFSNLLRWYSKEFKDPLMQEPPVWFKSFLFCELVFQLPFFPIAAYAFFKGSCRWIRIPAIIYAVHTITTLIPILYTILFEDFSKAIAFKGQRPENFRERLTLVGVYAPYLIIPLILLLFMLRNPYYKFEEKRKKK

sigma 1 binding site [2] = molecular target: T2, sigma 1 binding site

With O=S1(=O)c2ccccc2Nc2ccccc2N1CC1CCN(CC(O)c2ccc(F)cc2F)CC1 (racemic) [Example 3, (R,S)-1-(2,4-Difluorophenyl)-2-[4-(6,11-dihydrodibenzo[c,f][1,2,5]thiadiazepin-6-yl-methyl)piperidin-1-yl]ethanol S,S-dioxide hydrochloride] the Ki (Dopamine D2) was 700 nM, the Ki (sigma 1 binding site [1]) was 280 nM and the Ki (sigma 2 binding site) was 16 nM. For the same compound, the “S2/S1 Ratio” value (sigma 2 binding site) was 0.06.

Cc1ccccc1C(O)CN1CCC(CN2c3ccccc3Nc3ccccc3S2(=O)=O)CC1 (racemic) [Example 5, (R,S)-1-(2-Methylphenyl)-2-[4-(6,11-dihydrodibenzo[c,f][1,2,5]thiadiazepin-6-ylmethyl)piperidin-1-yl]ethanol S,S-dioxide hydrochloride] was tested, and the Ki (Dopamine D2) was 79 nM, the Ki (sigma 1 binding site [1]) was 71 nM and the Ki (sigma 2 binding site) was 13 nM. The “S2/S1 Ratio” value (sigma 2 binding site) was 0.2.

CN1c2ccccc2N(CC2CCN(CC(O)C34CC5CC(CC(C5)C3)C4)CC2)S(=O)(=O)c2ccccc21 (racemic) [Example 6, (R,S)-1-(1-Adamantyl)-2-[4-(11-methyl-6,11-dihydrodibenzo[c,f][1,2,5]thiadiazepin-6-ylmethyl)piperidin-1-yl]ethanol S,S-dioxide hydrochloride] was tested, and the Ki (Dopamine D2) was 170 nM, the Ki (sigma 1 binding site [1]) was 2100 nM and the Ki (sigma 2 binding site) was 2.7 nM. For the same compound, the “S2/S1 Ratio” value (sigma 2 binding site) was 0.001.

With CN1c2ccccc2N(CC2CCN(CC(O)c3ccc(F)cc3)CC2)S(=O)(=O)c2ccccc21 (racemic) [Example 7, (R,S)-1-(4-Fluorophenyl)-2-[4-(11-methyl-6,11-dihydrodibenzo[c,f][1,2,5]thiadiazepin-6-ylmethyl)piperidin-1-yl]ethanol S,S-dioxide hydrochloride] the Ki (Dopamine D2) was 320 nM, the Ki (sigma 1 binding site [1]) was 540 nM and the Ki (sigma 2 binding site) was 4 nM. For the same compound, the “S2/S1 Ratio” value (sigma 2 binding site) was 0.007.

O=S1(=O)c2ccccc2Nc2ccc(Cl)cc2N1CC1CCN(CC(O)C23CC4CC(CC(C4)C2)C3)CC1 (racemic) [Example 8, (R,S)-1-(1-Adamantyl)-2-[4-(8-chloro-6,11-dihydrodibenzo[c,f][1,2,5]thiadiazepin-6-ylmethyl)piperidin-1-yl]ethanol S,S-dioxide hydrochloride] gave a Ki (Dopamine D2) of 410 nM, a Ki (sigma 1 binding site [1]) of 630 nM and a Ki (sigma 2 binding site) of 16 nM. For the same compound, the “S2/S1 Ratio” value (sigma 2 binding site) was 0.03.

For O=S1(=O)c2ccccc2Oc2ccccc2N1CC1CCN(CC(O)c2ccc(Cl)cc2)CC1 (racemic) [Example 11, (R,S)-1-(4-Chlorophenyl)-2-[4-(6H-dibenzo[b,f][1,4,5]oxathiazepin-6-ylmethyl)piperidin-1-yl]ethanol S,S-dioxide hydrochloride], the Ki (Dopamine D2) was 200 nM, the Ki (sigma 1 binding site [1]) was 43 nM and the Ki (sigma 2 binding site) was 2.3 nM. The “S2/S1 Ratio” value (sigma 2 binding site) was 0.05.

Compound COc1ccc(C(O)CN2CCC(CN3c4ccccc4Oc4ccccc4S3(=O)=O)CC2)cc1 (racemic) [Example 12, (R,S)-1-(4-Methoxyphenyl)-2-[4-(6H-dibenzo[b,f][1,4,5]oxathiazepin-6-ylmethyl)piperidin-1-yl]ethanol S,S-dioxide hydrochloride] has a Ki (Dopamine D2) of 280 nM, a Ki (sigma 1 binding site [1]) of 78 nM and a Ki (sigma 2 binding site) of 7.1 nM. For the same compound, the “S2/S1 Ratio” value (sigma 2 binding site) was 0.09.

Compound Cc1ccc(C(O)CN2CCC(CN3c4ccccc4Oc4ccccc4S3(=O)=O)CC2)cc1 (racemic) [Example 13, (R,S)-1-(4-Methylphenyl)-2-[4-(6H-dibenzo[b,f][1,4,5]oxathiazepin-6-ylmethyl)piperidin-1-yl]ethanol S,S-dioxide hydrochloride] has a Ki (Dopamine D2) of 180 nM, a Ki (sigma 1 binding site [1]) of 89 nM and a Ki (sigma 2 binding site) of 1.6 nM. The “S2/S1 Ratio” value (sigma 2 binding site) was 0.02.

In the case of O=S1(=O)c2cc(Cl)ccc2Oc2ccccc2N1CC1CCN(CC(O)C23CC4CC(CC(C4)C2)C3)CC1 (racemic) [Example 14, (R,S)-1-(1-Adamantyl)-2-[4-(3-chloro-6H-dibenzo[b,f][1,4,5]oxathiazepin-6-ylmethyl)piperidin-1-yl]ethanol S,S-dioxide hydrochloride], the Ki (Dopamine D2) is reported as 120 nM, the Ki (sigma 1 binding site [1]) is reported as 380 nM and the Ki (sigma 2 binding site) is reported as 3.1 nM. For the same compound, the “S2/S1 Ratio” value (sigma 2 binding site) was 0.008.

In the case of O=S1(=O)c2cc(Cl)ccc2Oc2ccccc2N1CC1CCN(CC(O)c2ccccc2)CC1 (racemic) [Example 15, (R,S)-1-Phenyl-2-[4-(3-chloro-6H-dibenzo[b,f][1,4,5]oxathiazepin-6-yl-methyl)piperidin-1-yl]ethanol S,S-dioxide hydrochloride], the Ki (Dopamine D2) is reported as 180 nM, the Ki (sigma 1 binding site [1]) is reported as 110 nM and the Ki (sigma 2 binding site) is reported as 1.3 nM. The “S2/S1 Ratio” value (sigma 2 binding site) was 0.01.

Work on O=S1(=O)c2cc(Cl)ccc2Oc2ccccc2N1CC1CCN(CC(O)c2ccc(F)cc2)CC1 (racemic) [Example 16, (R,S)-1-(4-Fluorophenyl)-2-[4-(3-chloro-6H-dibenzo[b,f][1,4,5]oxathiazepin-6-ylmethyl)piperidin-1-yl]ethanol S,S-dioxide hydrochloride] yielded a Ki (Dopamine D2) of 210 nM, a Ki (sigma 1 binding site [1]) of 85 nM and a Ki (sigma 2 binding site) of 1.1 nM. The “S2/S1 Ratio” value (sigma 2 binding site) was 0.01.

In the case of O=S1(=O)c2cc(Cl)ccc2Oc2ccccc2N1CC1CCN(CC(O)c2ccc3ccccc3c2)CC1 (racemic) [Example 17, (R,S)-1-(2-Naphthyl)-2-[4-(3-chloro-6H-dibenzo[[b,f][1,4,5]oxathiazepin-6-ylmethyl)piperidin-1-yl]ethanol S,S-dioxide hydrochloride], the Ki (Dopamine D2) is reported as 350 nM, the Ki (sigma 1 binding site [1]) is reported as 510 nM and the Ki (sigma 2 binding site) is reported as 4.2 nM. The “S2/S1 Ratio” value (sigma 2 binding site) was 0.008.

Work on O=S1(=O)c2cc(Cl)ccc2Oc2ccccc2N1CC1CCN(CC(O)c2ccc(C(F)(F)F)cc2)CC1 (racemic) [Example 18, (R,S)-1-(4-Trifluoromethylphenyl)-2-[4-(3-chloro-6H-dibenzo[b,f][1,4,5]oxathiazepin-6-ylmethyl)piperidin-1-yl]ethanol S,S-dioxide hydrochloride] yielded a Ki (Dopamine D2) of 350 nM, a Ki (sigma 1 binding site [1]) of 1100 nM and a Ki (sigma 2 binding site) of 3.2 nM. For the same compound, the “S2/S1 Ratio” value (sigma 2 binding site) was 0.003.

O=S1(=O)c2cc(Cl)ccc2Oc2ccccc2N1CC1CCN(CC(O)c2ccc(OC(F)(F)F)cc2)CC1 (racemic) [Example 19, (R,S)-1-(4-Trifluoromethoxyphenyl)-2-[4-(3-chloro-6H-dibenzo[b,f][1,4,5]oxathiazepin-6-ylmethyl)piperidin-1-yl]ethanol S,S-dioxide hydrochloride] gave a Ki (Dopamine D2) of 270 nM, a Ki (sigma 1 binding site [1]) of 1200 nM and a Ki (sigma 2 binding site) of 8.4 nM. For the same compound, the “S2/S1 Ratio” value (sigma 2 binding site) was 0.007.

Work on COc1ccc2c(c1)N(CC1CCN(CC(O)C34CC5CC(CC(C5)C3)C4)CC1)S(=O)(=O)c1cc(Cl)ccc1O2 (racemic) [Example 20, hydrochloride] yielded a Ki (Dopamine D2) of 790 nM, a Ki (sigma 1 binding site [1]) of 3500 nM and a Ki (sigma 2 binding site) of 10 nM. For the same compound, the “S2/S1 Ratio” value (sigma 2 binding site) was 0.003.

Work on COc1ccc2c(c1)N(CC1CCN(CC(O)c3ccc(F)cc3)CC1)S(=O)(=O)c1cc(Cl)ccc1O2 (racemic) [Example 21, (R,S)-1-(4-Fluorophenyl)-2-[4-(3-chloro-8-methoxy-6H-dibenzo[b,f][1,4,5]oxathiazepin-6-ylmethyl)piperidin-1-yl]ethanol S,S-dioxide hydrochloride] yielded a Ki (Dopamine D2) of 820 nM, a Ki (sigma 1 binding site [1]) of 420 nM and a Ki (sigma 2 binding site) of 9 nM. For the same compound, the “S2/S1 Ratio” value (sigma 2 binding site) was 0.02.

Work on COc1ccc2c(c1)N(CC1CCN(CC(O)c3ccc(F)cc3)CC1)S(=O)(=O)c1ccccc1O2 (racemic) [Example 22, (R,S)-1-(4-Fluorophenyl)-2-[4-(8-methoxy-6H-dibenzo[b,f][1,4,5]oxathiazepin-6-ylmethyl)piperidin-1-yl]ethanol S,S-dioxide hydrochloride] yielded a Ki (Dopamine D2) of 870 nM, a Ki (sigma 1 binding site [1]) of 70 nM and a Ki (sigma 2 binding site) of 3.7 nM. The “S2/S1 Ratio” value (sigma 2 binding site) was 0.05.

With CN(CCCCN1c2ccccc2Oc2ccc(Cl)cc2S1(=O)=O)CC(O)C12CC3CC(CC(C3)C1)C2 (racemic) [Example 23, (R,S)-1-(1-Adamantyl)-2-[N-methyl-N-[4-(3-chloro-6H-dibenzo[b,f][1,4,5]oxathiazepin-6-yl)butyl]amino]ethanol S,S-dioxide hydrochloride] the Ki (Dopamine D2) was 1100 nM, the Ki (sigma 1 binding site [1]) was 1600 nM and the Ki (sigma 2 binding site) was 35 nM. For the same compound, the “S2/S1 Ratio” value (sigma 2 binding site) was 0.02.

In the case of CN(CCCCN1c2ccccc2Oc2ccc(Cl)cc2S1(=O)=O)CC(O)c1ccc(F)cc1 (racemic) [Example 24, (R,S)-1-(4-Fluorophenyl)-2-[N-methyl-N-[4-(3-chloro-6H-dibenzo[b,f][1,4,5]oxathiazepin-6-yl)butyl]amino]ethanol S,S-dioxide hydrochloride], the Ki (Dopamine D2) is reported as 800 nM, the Ki (sigma 1 binding site [1]) is reported as 140 nM and the Ki (sigma 2 binding site) is reported as 19 nM. The “S2/S1 Ratio” value (sigma 2 binding site) was 0.1.

For O=C(CN1CCC(CN2c3ccccc3Nc3ccccc3S2(=O)=O)CC1)C12CC3CC(CC(C3)C1)C2 [Example 1, 6-[[1-[2-(1-Adamantyl)-2-oxoethyl]-4-piperidinyl]methyl]-6,11-dihydrodibenzo[c,f][1,2,5]thiadiazepine 5,5-dioxide·hydrochloride], the Ki (Dopamine D2) was greater than 1000 nM, the Ki (sigma 1 binding site [1]) was 150 nM and the Ki (sigma 2 binding site) was 5 nM. The “S2/S1 Ratio” value (sigma 2 binding site) was 0.03.

With O=C(O)/C=C/C(=O)O.O=S1(=O)c2ccccc2Nc2ccccc2N1CC1CCN(C[C@H](O)C23CC4CC(CC(C4)C2)C3)CC1.O=S1(=O)c2ccccc2Nc2ccccc2N1CC1CCN(C[C@H](O)C23CC4CC(CC(C4)C2)C3)CC1 [Example 2, (R,S)-1-(1-Adamantyl)-2-[4-(6,11-dihydrodibenzo[c,f][1,2,5]thiadiazepin-6-ylmethyl)piperidin-1-yl]ethanol S,S-dioxide hemifumarate] the Ki (Dopamine D2) was 450 nM, the Ki (sigma 1 binding site [2]) was 320 nM and the “S2/S1 Ratio” value (sigma 2 binding site) was 0.01. It also gave a Ki (sigma 2 binding site; read-out: Sigma 2 Ki(nM ± SEM), [^3H]-DTG 1 nM, rat liver crude P2 membrane fraction, 500 nM pentazocine, 2 hours at 25°C) of 4.1 nM.
